Measured values from article PMC11882969 (Nature Communications, 2025).
Values joined by “and” are separate entries in the source; they are usually repeats but may differ in a detail not shown here. Equal values may be shown once. Read-outs that look alike come from different tables or passages of the source. Marks after values point to notes of the source that are not given here.

Key:
[1] = target: T1, hCB1 (Homo sapiens, UniProt P21554); test: bioSensAll ebBRET signaling profiling, hCB1; type: cell-based; parameters: host or cells: HEK293SL cells, transient PEI transfection; settings: for RE, relative efficacy: vs CP-55,940; for EC50: read-out: EC50 [95% CI]; for Emax: normalized to CP-55,940
[2] = target: T1, hCB1; test: Lance Ultra cAMP accumulation assay, CHO cells; type: cell-based; parameters: expressed in transfected cells; settings: for normalised cAMP response, concentration-response (Figure2f), replicate values: log[Compound;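 for all read-outs here: human CB1R stably expressed in CHO cells, ligands co-incubated with forskolin at room temperature, read-out is lowering of forskolin-stimulated cAMP accumulation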
Experimental: The inhibition of forskolin-stimulated cAMP accumulation assays was carried out using PerkinElmer’s Lance Ultra cAMP kit following the manufacturer’s protocol. In brief, CHO cells stably expressing human CB1R (provided by the lab of Laura Bohn) were harvested by incubation with Versene (ThermoFisher Scientific, Waltham, MA) for 10 min, washed once with Hank’s Balanced Salt Solution, and resuspended in stimulation buffer at ~200 cells/μL density. The ligands at eight different concentrations (0.001-10,000 nM) in stimulation buffer (5 μL) containing forskolin (2 μM final concentration) were added to a 384-well plate followed by the cell suspension (5 μL; ~1000 cells/well). The plate was incubated for 30 min at room temperature. Eu-cAMP tracer (5 μL) and Ulight-anti-cAMP (5 μL) working solutions were then added to each well, and the plate was incubated at room temperature for an additional 60 min. Results were measured on a Perkin-Elmer EnVision plate reader. The EC50 values were determined by nonlinear regression analysis using Graphpad Prism 9 and are expressed as the mean of three experiments, each performed in triplicate.

[3] = target: CB1 (rCB1) (Rattus norvegicus, UniProt P20272); test: Radioligand competition binding, [3H]-CP-55,940, rat brain membranes; settings: for radioligand binding, competition curve point (normalized): log[drug], replicate columns
Chain of CB1 (rCB1) (P20272 whole entry): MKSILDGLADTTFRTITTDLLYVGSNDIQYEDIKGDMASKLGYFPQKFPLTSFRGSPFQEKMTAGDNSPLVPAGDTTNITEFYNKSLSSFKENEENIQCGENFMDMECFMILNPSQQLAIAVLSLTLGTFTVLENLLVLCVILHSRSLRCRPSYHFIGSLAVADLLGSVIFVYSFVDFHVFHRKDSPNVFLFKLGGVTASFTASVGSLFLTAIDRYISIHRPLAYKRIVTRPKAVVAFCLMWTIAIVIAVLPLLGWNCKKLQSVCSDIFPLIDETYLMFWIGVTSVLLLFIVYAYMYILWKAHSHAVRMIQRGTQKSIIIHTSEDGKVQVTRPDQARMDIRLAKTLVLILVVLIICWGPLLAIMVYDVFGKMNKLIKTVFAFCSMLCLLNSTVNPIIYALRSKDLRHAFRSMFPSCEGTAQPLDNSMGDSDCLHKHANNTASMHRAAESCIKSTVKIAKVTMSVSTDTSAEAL

T1 sequence (P21554 whole entry): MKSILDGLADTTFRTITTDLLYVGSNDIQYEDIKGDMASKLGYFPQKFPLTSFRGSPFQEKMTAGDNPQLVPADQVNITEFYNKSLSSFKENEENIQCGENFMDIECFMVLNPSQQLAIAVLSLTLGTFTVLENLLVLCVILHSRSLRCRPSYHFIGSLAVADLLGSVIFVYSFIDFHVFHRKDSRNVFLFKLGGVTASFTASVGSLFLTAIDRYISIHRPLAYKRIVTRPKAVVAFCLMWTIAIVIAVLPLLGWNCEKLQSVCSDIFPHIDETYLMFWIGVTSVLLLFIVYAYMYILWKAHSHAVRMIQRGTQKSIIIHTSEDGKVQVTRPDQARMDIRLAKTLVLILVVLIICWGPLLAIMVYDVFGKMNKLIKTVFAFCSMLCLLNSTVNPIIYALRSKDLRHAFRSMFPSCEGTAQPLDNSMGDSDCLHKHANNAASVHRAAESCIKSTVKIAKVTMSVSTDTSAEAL

## COC(=O)[C@@](C)(NC(=O)c1cc(C)n(-c2cccc(C(F)(F)F)c2)n1)c1cccs1 [‘1350]
[1]; CB1R, Gi/o and G13 subtypes
  fold more relatively efficacious than CP-55,940: approximately 2 fold
[1]; Log [Compound] (M) -4.22186
  Barr2+GRK2 hCB1: 125.5* and 120.6* and 91.27*
  G13 hCB1: 69.1809 and 43.3855
  G15 hCB1: 108.417 and 97.817
  Gi1 hCB1: 103.518 and 79.8531 and 99.2855
  Gi2 hCB1: 106.254 and 114.578
  GoB hCB1: 102.685 and 99.7877 and 104.661
  Gq hCB1: 1156
  Gs hCB1: 6234
  Gz hCB1: 98.9486
[1]; Log [Compound] (M) -4.63927
  Barr2+GRK2 hCB1: 67.7543 and 59.6502 and 97.3886
  G15 hCB1: 104.285 and 89.1373
  Gi1 hCB1: 100.256 and 80.2965 and 97.3658
  Gi2 hCB1: 112.478 and 82.217
  GoB hCB1: 94.4304 and 95.2911 and 109.92
  Gq hCB1: 1096
  Gs hCB1: 6120
  Gz hCB1: 94.4339
[1]; Log [Compound] (M) -5.05788
  G15 hCB1: 99.6047 and 93.8454
  Gi1 hCB1: 101.042 and 84.715 and 96.0704
  Gi2 hCB1: 100.013 and 77.0501
  GoB hCB1: 90.3283 and 96.4543
  Gq hCB1: 1019
  Gs hCB1: 6223
  Gz hCB1: 91.6266
[1]; Log [Compound] (M) -5.47381
  G15 hCB1: 92.6315 and 93.0563
  Gi1 hCB1: 98.0616 and 86.5046 and 101.002
  Gi2 hCB1: 109.888 and 85.6163
  GoB hCB1: 95.0781 and 98.6071
  Gq hCB1: 1081
  Gs hCB1: 6070
  Gz hCB1: 90.4534
[1]; Log [Compound] (M) -5.89285
  Barr2+GRK2 hCB1: 49.9477 and 47.2064 and 86.5049
  G15 hCB1: 99.748 and 91.636
  Gi1 hCB1: 97.1719 and 80.8667 and 101.065
  Gi2 hCB1: 102.458 and 76.0168
  GoB hCB1: 92.8683 and 94.9439 and 107.071
  Gq hCB1: 1042
  Gs hCB1: 6370
  Gz hCB1: 91.8989
[1]; Log [Compound] (M) -6.31878
  G15 hCB1: 101.969 and 92.5566
  Gi1 hCB1: 107.685 and 74.7378 and 104.951
  Gi2 hCB1: 103.614 and 79.7423
  GoB hCB1: 90.0362 and 98.2252 and 101.933
  Gq hCB1: 1039
  Gs hCB1: 6417
  Gz hCB1: 93.1455
[1]; Log [Compound] (M) -6.72585
  G15 hCB1: 105.885 and 89.0321
  Gi1 hCB1: 94.74 and 76.8441 and 99.3323
  Gi2 hCB1: 103.093 and 82.0131
  GoB hCB1: 94.0367 and 93.8848 and 98.7347
  Gq hCB1: 1115
  Gs hCB1: 6298
  Gz hCB1: 84.3779
[1]; Log [Compound] (M) -7.14267
  G15 hCB1: 103.856 and 93.4508
  Gi1 hCB1: 91.7446 and 70.6519 and 99.504
  Gi2 hCB1: 99.8505 and 80.4086
  GoB hCB1: 91.8523 and 88.9368 and 103.009
  Gq hCB1: 1002
  Gs hCB1: 6288
  Gz hCB1: 87.489 and 99.2286
[1]; Log [Compound] (M) -7.55284
  Barr2+GRK2 hCB1: 47.1448 and 43.6966 and 56.3415
  G15 hCB1: 99.9152 and 95.5813
  Gi1 hCB1: 97.765 and 74.1201 and 97.5531
  Gi2 hCB1: 96.1681 and 79.7288
  GoB hCB1: 92.1444 and 89.4924 and 88.6102
  Gq hCB1: 1106
  Gs hCB1: 6295
  Gz hCB1: 88.7355 and 97.954
[1]; Log [Compound] (M) -8
  G13 hCB1: 59.5674 and 29.7847
  G15 hCB1: 98.7928 and 95.555
  Gi1 hCB1: 85.5759 and 80.7558 and 94.7595
  Gi2 hCB1: 103.924 and 86.4729
  GoB hCB1: 93.1096 and 93.0515 and 90.8837
  Gq hCB1: 998
  Gs hCB1: 6325
  Gz hCB1: 81.7172 and 92.9121
[1]; Log [Compound] (M) -8.22186
  Barr2+GRK2 hCB1: 55.5534 and 36.0388 and 57.0671
  G13 hCB1: 68.4414 and 35.9312
  G15 hCB1: 108.751 and 98.1326
  Gi1 hCB1: 92.6788 and 89.3236 and 99.6444
  Gi2 hCB1: 103.598 and 95.5013
  GoB hCB1: 98.7737 and 93.6765
  Gq hCB1: 1076
  Gs hCB1: 6277
  Gz hCB1: 86.1167 and 125.84
[1]; Log [Compound] (M) -8.39794
  Barr2+GRK2 hCB1: 29.9976 and 37.6342 and 37.3728
  G15 hCB1: 102.447 and 90.505
  Gi1 hCB1: 89.9355 and 81.3893 and 90.8265
  Gi2 hCB1: 93.2678 and 81.238
  GoB hCB1: 91.7888 and 85.5166 and 90.3229
  Gq hCB1: 1079
  Gs hCB1: 6774
  Gz hCB1: 90.3591 and 90.0229
[1]; Log [Compound] (M) -8.68787
  G13 hCB1: 53.1584 and 35.4081
  G15 hCB1: 102.996 and 87.3488
  Gi1 hCB1: 91.5518 and 80.8983 and 96.1797
  Gi2 hCB1: 100.616 and 73.0934
  GoB hCB1: 87.9026 and 94.3015 and 102.463
  Gq hCB1: 1093
  Gs hCB1: 6188
  Gz hCB1: 71.525 and 105.899
[1]; Log [Compound] (M) -9.15521
  G13 hCB1: 29.8642 and 17.8839
  G15 hCB1: 73.5984 and 77.2225
  Gi1 hCB1: 81.1718 and 69.1157 and 80.6507
  Gi2 hCB1: 77.4138 and 61.2639
  GoB hCB1: 71.2656 and 63.2418 and 86.0488
  Gq hCB1: 979
  Gs hCB1: 6053
  Gz hCB1: 50.0303 and 83.0974
[1]; Log [Compound] (M) -9.61989
  G15 hCB1: 46.4936 and 49.8683
  Gi1 hCB1: 46.5026 and 32.8966 and 52.9951
  Gi2 hCB1: 46.1296 and 39.0463
  GoB hCB1: 41.2683 and 36.2447 and 42.156
  Gq hCB1: 993
  Gs hCB1: 6331
[1]; Log [Compound] (M) -10.0969
  G15 hCB1: 22.2784 and 20.2785
  Gi2 hCB1: 20.3201 and 12.6408
  GoB hCB1: 15.6017 and 12.0427 and 18.9365
  Gq hCB1: 1040
  Gs hCB1: 6351
[1]; Log [Compound] (M) -10.5529
  G15 hCB1: 10.1469 and 8.811
  Gq hCB1: 1032
  Gs hCB1: 6578
[1]; Log [Compound] (M) -11.0177
  Gq hCB1: 1054
  Gs hCB1: 6308
[1]; Log [Compound] (M) -11.4949
  Gq hCB1: 1050
  Gs hCB1: 6446
[1]; Log [Compound] (M) -11.9208
  Gq hCB1: 1129
  Gs hCB1: 6648
[1]; Log [Compound] (M) -12.3979
  Gq hCB1: 1059
  Gs hCB1: 6648
[1]; Log [Compound] (M) -12.8861
  Gq hCB1: 1070
  Gs hCB1: 6918
[1]; hCB1 G13
  pEC50 [95% CI]: 9.08 [8.6 – 9.6]
  RE, relative efficacy: 1.64
  EC50: 0.83 nM
[1]; hCB1 G15
  RE, relative efficacy: 1.14
  EC50: 0.22 nM
[1]; hCB1 Gi1
  pEC50 [95% CI]: 9.63 [9.5 – 9.7]
  RE, relative efficacy: 1.98
  EC50: 0.23 nM
[1]; hCB1 Gi2
  RE, relative efficacy: 1.89
  EC50: 0.28 nM
[1]; hCB1 GoB
  RE, relative efficacy: 2.24
  EC50: 0.29 nM
[1]; hCB1 Gz
  RE, relative efficacy: 0.77
  EC50: 0.35 nM
[1]; hCB1 ßarr2+GRK2
  RE, relative efficacy: 1.16
[1]; hCB1 Barr2 + GRK2
  EC50: 2.2 nM
[1]; read-out: Emax [95% CI], hCB1 Barr2 + GRK2
  Emax: 63%
[1]; read-out: Emax [95% CI], hCB1 G13
  Emax: 56%
[1]; read-out: Emax [95% CI], hCB1 G15
  Emax: 99%
[1]; read-out: Emax [95% CI], hCB1 Gi1
  Emax: 92%
[1]; read-out: Emax [95% CI], hCB1 Gi2
  Emax: 95%
[1]; read-out: Emax [95% CI], hCB1 GoB
  Emax: 98%
[1]; read-out: Emax [95% CI], hCB1 Gz
  Emax: 94%
[2]
  Lance Ultra cAMP pEC50: 8.8 [8.4 – 9.2]
[2]; CHO
  Emax: 77%
[2]; hCB1-expressing cells, in words
  agonism, inhibition of forskolin-stimulated cAMP: agonists
[2]; M] -5
  normalised cAMP response, concentration-response (Figure2f), replicate values: -4.858 and 11.635 and 22.5761 and 22.3192 and 16.0513
[2]; M] -6
  normalised cAMP response, concentration-response (Figure2f), replicate values: 0.02957 and 13.0032 and 24.8348 and 23.4809 and 19.7873
[2]; M] -7
  normalised cAMP response, concentration-response (Figure2f), replicate values: -1.176 and 11.2775 and 31.1162 and 23.9321 and 21.5823
[2]; M] -8
  normalised cAMP response, concentration-response (Figure2f), replicate values: 4.023 and 6.478 and 36.7172 and 38.802 and 36.5532
[2]; M] -9
  normalised cAMP response, concentration-response (Figure2f), replicate values: 33.486 and 46.5508 and 80.4827 and 77.993 and 76.9862
[2]; M] -10
  normalised cAMP response, concentration-response (Figure2f), replicate values: 57.5574 and 85.1374 and 96.2204 and 101.985 and 96.4953
[2]; M] -11
  normalised cAMP response, concentration-response (Figure2f), replicate values: 67.5707 and 85.3574 and 95.6722 and 97.0187 and 98.6477
[2]; M] -12
  normalised cAMP response, concentration-response (Figure2f), replicate values: 65.6738 and 93.8429 and 115.239 and 106.805 and 95.2537
[3]; LLE = pIC50 − clogP
  LLE (lipophilic ligand efficiency): 4.7
[3]; from rCB1 affinity
  LE (ligand efficiency): 0.41
[3]; rCB1
  pKi [95% CI]: 9.0 [8.9 – 9.1] and 9.02 [8.9 – 9.1]
[3]; rCB1, M = -6.643
  radioligand binding, competition curve point (normalized): -0.744 and -7.487 and -3.298
[3]; rCB1, M = -7.357
  radioligand binding, competition curve point (normalized): -0.8036 and -4.1 and -0.2377
[3]; rCB1, M = -8.07
  radioligand binding, competition curve point (normalized): 10.2232 and 5.66 and 5.585
[3]; rCB1, M = -8.783
  radioligand binding, competition curve point (normalized): 48.7054 and 44.7118 and 50.1783
[3]; rCB1, M = -9.496
  radioligand binding, competition curve point (normalized): 85.9821 and 91.8301 and 85.5615
[3]; rCB1, M = -10.21
  radioligand binding, competition curve point (normalized): 99.5833 and 109.715 and 87.0469
[3]; rCB1, M = -11.923
  radioligand binding, competition curve point (normalized): 90.0893 and 95.7219 and 98.7077
[3]; rCB1, M = -13.636
  radioligand binding, competition curve point (normalized): 93.4375 and 98.1283
[3]; rCB1 binding
  fold more potent than CP-55,940: 3 fold
[3]; vs parent hit or analog without the change
  fold improvement in CB1R affinity: ~50 fold
